Reference: EP0533925A1, “OPTICAL ISOMER OF R-FORM OF DIPHENYL ETHER DERIVATIVE AND HERBICIDE CONTAINING THE SAME AS ACTIVE INGREDIENT” (TEIJIN LIMITED, priority 1990, dated 1991)
Structures can show the parent of a compound that is named as a salt.

Tests used:
Type in all cases: in vivo
Design in all cases: key: 0 means the state where the plants are as sound as before the application of the active compound; 1, 2, 3 and 4 mean varying degrees of the enfeebled state of the plants between 0 and 5; 1, 2, 3 and 4 mean varying degrees of the enfeebled state of the plants between 0 and 5; 1, 2, 3 and 4 mean varying degrees of the enfeebled state of the plants between 0 and 5; 1, 2, 3 and 4 mean varying degrees of the enfeebled state of the plants between 0 and 5; 5 is the state where the plants are withered or killed by application of the active compound
Astragalus sinicus [1] = assay: Herbicidal activity, foliar application of single compounds (Test Examples 1 to 5); settings: 3 weeks after application
Experimental: (§1) In these examples, all parts means parts by weight, unless otherwise noted. The herbicidal activity was evaluated on a scale of 6 degrees. In other words, 0 means the state where the plants are as sound as before the application of the active compound, while 5 is the state where the plants are withered or killed by application of the active compound, and 1, 2, 3 and 4 mean varying degrees of the enfeebled state of the plants between 0 and 5.
(§2) The diphenyl ethers shown in Table 2 were added to 5000 parts of a mixture of acetone and water (1 : 1 by volume), and 2.6 parts of a nonionic surfactant (Sorpol 2680, tradename) was added to form a solution, so that the ether becomes the prescribed amount in each solution.
(§3) Seeds of plants were sown in the soil, cultivated for 2 to 3 weeks, after germination, then the plants were used for the tests.
(§4) The prepared solution was applied to these plants at the prescribed rate of application in total, then the plants were continuously cultivated for 3 weeks without applying the solution.
(§5) The alphabetical symbols in Tables 2 and 3 represent the following plants, respectively: a: Digitaria adscendens b: Setaria viridis c: Sorghum halepense d: Chenopodium album var. centrorubrum e: Amaranthus mangostanus f: Astragalus sinicus g: Abutilon theophrosti h: Solanum nigrum i: Xanthium strumarium j: Soybean; Glycine max k: Corn; Zea mays Table 2

Digitaria adscendens [2] = assay: as above; settings: 3 weeks after application
Experimental: as §1, §2, §3, §4, §5

Amaranthus mangostanus [3] = assay: as above; settings: 3 weeks after application
Experimental: as §1, §2, §3, §4, §5

Astragalus sinicus [4] = assay: Herbicidal activity, spray of diphenyl ether with N-phosphonomethylglycine derivative (Test Examples 6 to 10); settings: Application 0.375 Kg/ha (117) alone
Experimental: as §1
(§6) In each run, the diphenyl ether derivatives and the N-phosphonomethylglycine derivatives shown in Table 3 (in the indicated mixing ratios) was dissolved in 16 parts by volume of a mixture of water and acetone (1 : 1 by volume; containing 0.05 % of a nonionic surfactant, Sorpol-2680) in the indicated mixing ratio, respectively, to prepare spray solutions.
(§7) The plants tested were grown in vinyl resin pots (diameter 10 cm) filled with soil in a green house for 2 to 3 weeks after germination from seeds or tubers.
(§8) The spray solution was applied to the plants so that the total volume sprayed became 4 cc/100 cm², and the herbicidal activity was examined.
as §5

Sorghum halepense = assay: as above; settings: Application 0.375 Kg/ha (117) alone
Experimental: as §1, §6, §7, §8, §5

Corn; Zea mays = assay: as above; settings: Application 0.375 Kg/ha (117) alone
Experimental: as §1, §6, §7, §8, §5

Digitaria adscendens [5] = assay: as above; settings: Application 0.375 Kg/ha (117) alone
Experimental: as §1, §6, §7, §8, §5

Amaranthus mangostanus [6] = assay: as above; settings: Application 0.375 Kg/ha (117) alone
Experimental: as §1, §6, §7, §8, §5

[7] = Rate of Application 0.016 kg/ha
[8] = Rate of Application 0.031 kg/ha

COC(=O)C(C)Oc1cc(Oc2ccc(C(F)(F)F)cc2Cl)ccc1C#N (stereo not drawn) [Compound (1), Methyl α-[2-cyano-5-(2-chloro-4-trifluoromethylphenoxy)phenoxy]propionate]
herbicidal activity, Plants f (Astragalus sinicus [1]; [7]): 5 | herbicidal activity, Plants f (Astragalus sinicus [1]; [8]): 5 | herbicidal activity, Plants a (Digitaria adscendens [2]; [7]): 4 | herbicidal activity, Plants a (Digitaria adscendens [2]; [8]): 4 | herbicidal activity, Plants e (Amaranthus mangostanus [3]; [7]): 5 | herbicidal activity, Plants e (Amaranthus mangostanus [3]; [8]): 5

O=C(O)CNCP(=O)(O)O [Compound (117), N-phosphonomethylglycine isopropylammonium salt]
herbicidal activity, Plants f (Astragalus sinicus [4]; 3 days after treatment): 0 | herbicidal activity, Plants f (Astragalus sinicus [4]; 7 days after treatment): 0 | herbicidal activity, Plants f (Astragalus sinicus [4]; 14 days after treatment): 0 | herbicidal activity, Plants c (Sorghum halepense; 3 days after treatment): 0 | herbicidal activity, Plants c (Sorghum halepense; 7 days after treatment): 0 | herbicidal activity, Plants c (Sorghum halepense; 14 days after treatment): 1 | herbicidal activity, Plants k (Corn; Zea mays; 3 days after treatment): 0 | herbicidal activity, Plants k (Corn; Zea mays; 7 days after treatment): 0 | herbicidal activity, Plants k (Corn; Zea mays; 14 days after treatment): 0 | herbicidal activity, Plants a (Digitaria adscendens [5]; 3 days after treatment): 3 | herbicidal activity, Plants a (Digitaria adscendens [5]; 7 days after treatment): 1 | herbicidal activity, Plants a (Digitaria adscendens [5]; 14 days after treatment): 3 | herbicidal activity, Plants e (Amaranthus mangostanus [6]; 3 days after treatment): 0 | herbicidal activity, Plants e (Amaranthus mangostanus [6]; 7 days after treatment): 0 | herbicidal activity, Plants e (Amaranthus mangostanus [6]; 14 days after treatment): 0
